Values quoted from earlier work as cited in patent US4000310A, “Pharmaceutical compositions containing 6-methyl-3,4-diphenyl-3,4,5,6-tetrahydro-2-pyrone or derivatives thereof” (Union Chimique Continentale-U.C.C, priority 1974, dated 1976).

Test system: animals
Conditions: caffeine, general statement; cited from earlier work

Cn1c(=O)c2c(ncn2C)n(C)c1=O [caffeine]
sleep inhibiting effect: caffeine does
